Measurements reported in paper PMC11578313, “Miniaturized Modular Click Chemistry‐enabled Rapid Discovery of Unique SARS‐CoV‐2 M^pro Inhibitors With Robust Potency and Drug‐like Profile” (Advanced Science, 2024).

Assay: in vitro
Conditions: human

Cc1cncc(C(=O)N2C[C@H]3CC[C@@H](C2)N3[C@H](c2cccc(F)c2)c2cn(CCc3ccsc3)nn2)c1 [Compound C5N17B]
> 100 µM: CC50 | CC50 at 2 day (CC50 (Table 3), Calu‐3 cells) | CC50 at 2 day (CC50, Calu‐3 cells, MTT assay) | CC50 at 2 day (CC50, column 9, after the Calu-3 EC50 columns)
